Experimental data taken from patent publication US9249102B2 (priority 2012, dated 2016).
Read-outs that look alike come from different tables or passages of the source.

Assays:
Haemonchus contortus = assay: Method A: Haemonchus contortus L1 larvae, microtitre plate screen; details: 96 h, read-out: motility inhibition
Cooperia oncophora = assay: Method C: Cooperia oncophora L1 larvae in vitro; details: 96 h, read-out: inhibition of motility
[1] = tested on: microfilaria of Dirofilaria immitis; assay: Method F: microfilaria of Dirofilaria immitis, survival at 24 hours
[2] = survival of microfilaria at 24 hours

| SMILES | inhibition at 5 µg/mL (Haemonchus contortus) | inhibition at 5 µg/mL (Cooperia oncophora) | EC50 [1, 2] | EC50 [1] |
| --- | --- | --- | --- | --- |
| C[C@@H]([C@H]1Cc2cc(F)ccc2O1)N1CCN(C(=O)COC2CCC(Nc3ccc([N+](=O)[O-])c(C(F)(F)F)c3)CC2)CC1 (relative stereo) [Compound 260, 1-(4-((S)-1-((R)-5-fluoro-2,3-dihydrobenzofuran-2-yl)ethyl)piperazin-1-yl)-2-(4-(4-nitro-3-(trifluoromethyl)phenylamino)cyclohexyloxy)ethanone] | ≥ 90% | ≥ 90% | < 1 µg/mL | – |
| O=C(CO[C@H]1CC[C@H](Nc2ccc([N+](=O)[O-])c(C(F)(F)F)c2)CC1)N1CCN(CC2Cc3cc(Cl)ccc3O2)CC1 (some centres unmarked) [Compound 76, 1-[4-[(5-chloro-2,3-dihydro-1-benzofuran-2-yl)methyl]piperazin-1-yl]-2-[(4-[[4-nitro-3-(trifluoromethyl)phenyl]amino]cyclohexyl)oxy]ethan-1-one] | ≥ 90% | ≥ 90% | – | < 5 µg/mL |
| O=C(CO[C@H]1CC[C@H](Nc2ccc([N+](=O)[O-])c(C(F)(F)F)c2)CC1)N1CCN(c2ccc3cc(Cl)ccc3n2)CC1 [Compound 90, 1-[4-(6-chloroquinolin-2-yl)piperazin-1-yl]-2-[(4-[[4-nitro-3-(trifluoromethyl)phenyl]amino]cyclohexyl)oxy]ethan-1-one] | ≥ 90% | ≥ 90% | < 0.1 µg/mL | – |
| Cc1cc(N2CCN(C(=O)CO[C@H]3CC[C@H](Nc4ccc([N+](=O)[O-])c(C(F)(F)F)c4)CC3)CC2)nc2ccc(F)cc12 [Compound 99, 1-[4-(6-fluoro-4-methyl-2-quinolyl)piperazin-1-yl]-2-[4-[4-nitro-3-(trifluoromethyl)anilino]cyclohexoxy]ethanone] | ≥ 90% | ≥ 90% | < 1 µg/mL | – |
| O=C(CO[C@H]1CC[C@H](Nc2ccc([N+](=O)[O-])c(C(F)(F)F)c2)CC1)N1CCN(Cc2oc3ccc(C(F)(F)F)cc3c2Cl)CC1 [Compound 253, 1-(4-[[3-chloro-5-(trifluoromethyl)-1-benzofuran-2-yl]methyl]piperazin-1-yl)-2-[[4-[[4-nitro-3-(trifluoromethyl)phenyl]amino]cyclohexyl]oxy]ethan-1-one] | ≥ 90% | – | < 0.1 µg/mL | – |
| CC(c1oc2ccc(C(F)(F)F)cc2c1Cl)N1CCN(C(=O)CO[C@H]2CC[C@H](Nc3ccc([N+](=O)[O-])c(C(F)(F)F)c3)CC2)CC1 (some centres unmarked) [Compound 255, 2-1-(4-[1-[3-chloro-5-(trifluoromethyl)-1-benzofuran-2-yl]ethyl]piperazin-1-yl)-2-[[4-[[4-nitro-3-(trifluoromethyl)phenyl]amino]cyclohexyl]oxy]ethan-1-one] | ≥ 90% | – | < 1 µg/mL | – |
| CC(c1cc2cc(C(F)(F)F)ccc2o1)N1CCN(C(=O)CO[C@H]2CC[C@H](N(C)c3ccc([N+](=O)[O-])c(C(F)(F)F)c3)CC2)CC1 (some centres unmarked) [Compound 257, 2-[[4-[methyl[4-nitro-3-(trifluoromethyl)phenyl]amino]cyclohexyl]oxy]-1-(4-[1-[5-(trifluoro-methyl)-1-benzofuran-2-yl]ethyl]piperazin-1-yl)ethan-1-one] | ≥ 90% | – | < 5 µg/mL | – |
| CN(c1ccc([N+](=O)[O-])c(C(F)(F)F)c1)[C@H]1CC[C@H](OCC(=O)N2CCN(Cc3oc4ccc(C(F)(F)F)cc4c3Cl)CC2)CC1 [Compound 258, 1-(4-[[3-chloro-5-(trifluoromethyl)-1-benzofuran-2-yl]methyl]piperazin-1-yl)-2-[[4-[methyl[4-nitro-3-(trifluoromethyl)phenyl]amino]cyclohexyl]oxy]ethan-1-one] | ≥ 90% | – | < 1 µg/mL | – |
| O=[N+]([O-])c1ccc(N[C@H]2CC[C@H](OCC(=S)N3CCN(c4ccc5cc(F)ccc5c4)CC3)CC2)cc1C(F)(F)F [Compound 263, 1-[4-(6-fluoro-naphthalen-2-yl)-piperazin-1-yl]-2-[4-(4-nitro-3-trifluoromethyl-henylamino)-cyclohexyloxy]-ethanethione] | ≥ 90% | – | < 1 µg/mL | – |
| O=[N+]([O-])c1ccc(N[C@H]2CC[C@H](OCC(=S)N3CCN(CC4Cc5cc(F)ccc5O4)CC3)CC2)cc1C(F)(F)F (some centres unmarked) [Compound 265, 1-[4-(5-fluoro-2,3-dihydro-benzofuran-2-ylmethyl)-piperazin-1-yl]-2-[4-(4-nitro-3-trifluoromethyl-phenylamino)-cyclohexyloxy]-ethanethione] | ≥ 90% | – | < 1 µg/mL | – |
| CN(c1ccc([N+](=O)[O-])c(C(F)(F)F)c1)[C@H]1CC[C@H](OCC(=O)N2CCN(Cc3cc4cc(Cl)ccc4o3)CC2)CC1 [Compound 275, 2-[(4-[methyl[4-nitro-3-(trifluoromethyl)phenyl]amino]cyclohexyl)-oxy]1-[4-(5-chlorobenzofuran-2-ylmethyl)piperazin-1-yl]ethan-1-one] | ≥ 90% | – | < 1 µg/mL | – |
| Cc1cc(N2CCN(C(=O)CO[C@H]3CC[C@H](Nc4ccc([N+](=O)[O-])c(C(F)(F)F)c4)CC3)CC2)nc2ccc(Br)cc12 [Compound 277, 1-[4-(6-bromo-4-methyl-2-quinolyl)piperazin-1-yl]-2-[4-[4-nitro-3-(trifluoromethyl)anilino]cyclohexoxy]ethanone] | ≥ 90% | – | < 5 µg/mL | – |
| N#Cc1ccc(N[C@H]2CC[C@H](OCC(=O)N3CCN(c4ccc5cc(F)ccc5c4)CC3)CC2)cc1C(F)(F)F [Compound 279, 4-(4-{2-[4-(6-fluoro-naphthalen-2-yl)-piperazin-1-yl]-2-oxo-ethoxy}-cyclohexylamino)-2-trifluoromethyl-benzonitrile] | ≥ 90% | – | < 5 µg/mL | – |
| CN(c1ccc(C#N)c(C(F)(F)F)c1)[C@H]1CC[C@H](OCC(=O)N2CCN(c3ccc4cc(Br)ccc4n3)CC2)CC1 [Compound 281, 2-[(4-[methyl[4-cyano-3-(trifluoromethyl)phenyl]amino]cyclohexyl)-oxy]-1-[4-(6-bromoquinolin-2-yl)piperazin-1-yl]ethan-1-one] | ≥ 90% | ≥ 90% | – | – |
| CN(c1ccc(C#N)c(C(F)(F)F)c1)[C@H]1CC[C@H](OCC(=O)N2CCN(c3ccc4cc(Cl)ccc4n3)CC2)CC1 [Compound 282, 2-[(4-[methyl[4-cyano-3-(trifluoromethyl)phenyl]amino]cyclohexyl)-oxy]1-[4-(6-chloroquinolin-2-yl)-piperazin-1-yl]ethan-1-one] | ≥ 90% | ≥ 90% | – | – |
| O=C(CO[C@H]1CC[C@H](Nc2ccc([N+](=O)[O-])c(C(F)(F)F)c2)CC1)N1CCN(c2ccc3cc(F)ccc3c2F)CC1 [Compound 289, 1-[4-(1,6-difluoro-naphthalen-2-yl)-piperazin-1-yl]-2-[4-(4-nitro-3-trifluoromethyl-phenylamino)-cyclohexyloxy]-ethanone] | ≥ 90% | ≥ 90% | – | – |
| N#Cc1ccc(N[C@H]2CC[C@H](OCC(=O)N3CCN(Cc4oc5ccc(C(F)(F)F)cc5c4Cl)CC3)CC2)cc1C(F)(F)F [Compound 305, 4-(4-{2-[4-(3-chloro-5-trifluoromethyl-benzofuran-2-ylmethyl)-piperazin-1-yl]-2-oxo-ethoxy}-cyclohexylamino)-2-trifluoromethyl-benzonitrile] | ≥ 90% | – | < 0.1 µg/mL | – |
| C[C@@H]1CN(CC2Cc3cc(F)ccc3O2)[C@@H](C)CN1C(=O)CO[C@H]1CC[C@H](Nc2ccc(C#N)c(C(F)(F)F)c2)CC1 (stereo partly drawn) [Compound 308, 4-(4-{2-[(2R,5S)-4-(5-fluoro-2,3-dihydro-benzofuran-2-ylmethyl)-2,5-dimethyl-piperazin-1-yl]-2-oxo-ethoxy}-cyclohexylamino)-2-trifluoromethyl-benzonitrile] | ≥ 90% | – | – | < 0.1 µg/mL |
| O=C(CO[C@H]1CC[C@H](Nc2ccc([N+](=O)[O-])c(C(F)(F)F)c2)CC1)N1CC2CCC1CN2CC1Cc2cc(F)ccc2O1 (some centres unmarked) [Compound 309, 1-[5-(5-fluoro-2,3-dihydro-benzofuran-2-ylmethyl)-2,5-diaza-bicyclo[2.2.2]oct-2-yl]-2-[4-(4-nitro-3-trifluoromethyl-phenylamino)-cyclohexyloxy]-ethanone] | ≥ 90% | – | < 0.1 µg/mL | – |
| O=C(CO[C@H]1CC[C@H](Nc2ccc([N+](=O)[O-])c(C(F)(F)F)c2)CC1)N1CCN(Cc2cc3cc(OC(F)(F)F)ccc3o2)CC1 [Compound 326, 2-[(4-[[4-nitro-3-(trifluoromethyl)phenyl]amino]cyclohexyl)-oxy]1-[4-[5-(trifluoromethoxy)benzofuran-2-ylmethyl]piperazin-1-yl]ethan-1-one] | ≥ 90% | ≥ 90% | – | – |
| O=C(CO[C@H]1CC[C@H](Nc2ccc(S(=O)(=O)C(F)(F)F)cc2)CC1)N1CCN(c2ccc3cc(C(F)(F)F)ccc3n2)CC1 [Compound 331, 1-[4-[6-(trifluoromethyl)-2-quinolyl]piperazin-1-yl]-2-[4-[4-(trifluoromethylsulfonyl)anilino]cyclohexoxy]ethanone] | ≥ 90% | ≥ 90% | – | – |
| CC(c1nc2cc(C(F)(F)F)ccc2s1)N1CCN(C(=O)CO[C@H]2CC[C@H](Nc3ccc([N+](=O)[O-])c(C(F)(F)F)c3)CC2)CC1 (some centres unmarked) [Compound 343, 2-[4-(4-nitro-3-trifluoromethyl-phenylamino)-cyclohexyloxy]-1-{4-[1-(5-trifluoromethyl-benzothiazol-2-yl)-ethyl]-piperazin-1-yl}-ethanone] | ≥ 90% | ≥ 90% | – | – |
| O=C(CO[C@H]1CC[C@H](Nc2ccc(S(=O)(=O)C(F)(F)F)cc2)CC1)N1CCN(Cc2nc3cc(C(F)(F)F)ccc3s2)CC1 [Compound 344, 1-[4-[[5-(trifluoromethyl)-1,3-benzothiazol-2-yl]methyl]piperazin-1-yl]-2-[4-[4-(trifluoromethylsulfonyl)anilino]cyclohexoxy]ethanone] | ≥ 90% | ≥ 90% | – | – |
